{"source": "the supplement of paper PMC10307832", "assay_in_all_cases": "relative viability (nuclei count vs DMSO), 5 days (fraction); higher = more cells survive", "key": {"KN-93": {"compound": "CN(C/C=C/C1=CC=C(C=C1)Cl)CC2=CC=CC=C2N(CCO)S(=O)(=O)C3=CC=C(C=C3)OC [KN-93]", "procedure,_shortened": "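Following overnight incubation at 37 °C, lung cancer cell lines in 1536-well plates were pinned with five library-drug doses (not always all listed) in √10 steps on vehicle-anchored plates. The cells then spent 5 days without medium change before a combined fix, permeabilisation and Hoechst stain, 4× imaging and MetaXpress nuclear counts. Viability is the treated-to-vehicle ratio of nuclei, taken as the median across plates. Only plates with control CV below 25% and at least one doubling passed.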"}, "KN-93 + Dasatinib": {"compound": "CN(C/C=C/C1=CC=C(C=C1)Cl)CC2=CC=CC=C2N(CCO)S(=O)(=O)C3=CC=C(C=C3)OC [KN-93] + Cc1nc(Nc2ncc(C(=O)Nc3c(C)cccc3Cl)s2)cc(N2CCN(CCO)CC2)n1 [Dasatinib] (partner 0.075 µM)", "procedure,_shortened": "(§1)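 Relative viability divides the nuclei count in treated wells by that in vehicle wells. Lung cancer cell lines were seeded in 1536-well plates, dosed by pin tool the next day, and fixed and stained after 5 days in one step with final 0.05% Triton X-100, 1% formaldehyde and 1 ug/ml Hoechst. Dosing was a single drug or a fixed anchor-drug dose plus five library-drug doses (not always all listed) in √10 steps, and values are medians of duplicate plates imaged at 4×.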"}, "KN-93 + Tozasertib": {"compound": "CN(C/C=C/C1=CC=C(C=C1)Cl)CC2=CC=CC=C2N(CCO)S(=O)(=O)C3=CC=C(C=C3)OC [KN-93] + Cc1cc(Nc2cc(N3CCN(C)CC3)nc(Sc3ccc(NC(=O)C4CC4)cc3)n2)n[nH]1 [Tozasertib] (partner 0.1 µM)", "procedure,_shortened": "as §1"}, "KN-93 + Foretinib": {"compound": "CN(C/C=C/C1=CC=C(C=C1)Cl)CC2=CC=CC=C2N(CCO)S(=O)(=O)C3=CC=C(C=C3)OC [KN-93] + COc1cc2c(Oc3ccc(NC(=O)C4(C(=O)Nc5ccc(F)cc5)CC4)cc3F)ccnc2cc1OCCCN1CCOCC1 [Foretinib] (partner 0.25 µM)", "procedure,_shortened": "as §1"}, "KN-93 + OSI-027": {"compound": "CN(C/C=C/C1=CC=C(C=C1)Cl)CC2=CC=CC=C2N(CCO)S(=O)(=O)C3=CC=C(C=C3)OC [KN-93] + COc1cccc2cc(-c3nc([C@H]4CC[C@H](C(=O)O)CC4)n4ncnc(N)c34)[nH]c12 [OSI-027] (partner 0.5 µM)", "procedure,_shortened": "as §1"}, "KN-93 + Phenformin": {"compound": "CN(C/C=C/C1=CC=C(C=C1)Cl)CC2=CC=CC=C2N(CCO)S(=O)(=O)C3=CC=C(C=C3)OC [KN-93] + N=C(N)NC(=N)NCCc1ccccc1 [Phenformin] (partner 250 µM)", "procedure,_shortened": "as §1"}, "KN-93 + Luminespib": {"compound": "CN(C/C=C/C1=CC=C(C=C1)Cl)CC2=CC=CC=C2N(CCO)S(=O)(=O)C3=CC=C(C=C3)OC [KN-93] + CCNC(=O)c1noc(-c2cc(C(C)C)c(O)cc2O)c1-c1ccc(CN2CCOCC2)cc1 [Luminespib] (partner 0.01 µM)", "procedure,_shortened": "as §1"}, "KN-93 + Vorinostat": {"compound": "CN(C/C=C/C1=CC=C(C=C1)Cl)CC2=CC=CC=C2N(CCO)S(=O)(=O)C3=CC=C(C=C3)OC [KN-93] + O=C(CCCCCCC(=O)Nc1ccccc1)NO [Vorinostat] (partner 1 µM)", "procedure,_shortened": "as §1"}, "KN-93 + AZD7762": {"compound": "CN(C/C=C/C1=CC=C(C=C1)Cl)CC2=CC=CC=C2N(CCO)S(=O)(=O)C3=CC=C(C=C3)OC [KN-93] + NC(=O)Nc1cc(-c2cccc(F)c2)sc1C(=O)N[C@H]1CCCNC1 [AZD7762] (partner 0.2 µM)", "procedure,_shortened": "as §1"}, "KN-93 + Olaparib": {"compound": "CN(C/C=C/C1=CC=C(C=C1)Cl)CC2=CC=CC=C2N(CCO)S(=O)(=O)C3=CC=C(C=C3)OC [KN-93] + O=C(c1cc(Cc2n[nH]c(=O)c3ccccc23)ccc1F)N1CCN(C(=O)C2CC2)CC1 [Olaparib] (partner 8 µM)", "procedure,_shortened": "as §1"}, "KN-93 + Palbociclib": {"compound": "CN(C/C=C/C1=CC=C(C=C1)Cl)CC2=CC=CC=C2N(CCO)S(=O)(=O)C3=CC=C(C=C3)OC [KN-93] + CC(=O)c1c(C)c2cnc(Nc3ccc(N4CCNCC4)cn3)nc2n(C2CCCC2)c1=O [Palbociclib] (partner 0.5 µM)", "procedure,_shortened": "as §1"}, "KN-93 + Decitabine": {"compound": "CN(C/C=C/C1=CC=C(C=C1)Cl)CC2=CC=CC=C2N(CCO)S(=O)(=O)C3=CC=C(C=C3)OC [KN-93] + Nc1ncn([C@H]2C[C@H](O)[C@@H](CO)O2)c(=O)n1 [Decitabine] (partner 2 µM)", "procedure,_shortened": "as §1"}, "KN-93 + Pemetrexed": {"compound": "CN(C/C=C/C1=CC=C(C=C1)Cl)CC2=CC=CC=C2N(CCO)S(=O)(=O)C3=CC=C(C=C3)OC [KN-93] + Nc1nc2[nH]cc(CCc3ccc(C(=O)N[C@@H](CCC(=O)O)C(=O)O)cc3)c2c(=O)[nH]1 [Pemetrexed] (partner 0.2 µM)", "procedure,_shortened": "as §1"}, "KN-93 + Trametinib": {"compound": "CN(C/C=C/C1=CC=C(C=C1)Cl)CC2=CC=CC=C2N(CCO)S(=O)(=O)C3=CC=C(C=C3)OC [KN-93] + CC(=O)Nc1cccc(-n2c(=O)n(C3CC3)c(=O)c3c(Nc4ccc(I)cc4F)n(C)c(=O)c(C)c32)c1 [Trametinib] (partner 0.02 µM)", "procedure,_shortened": "as §1"}}}
{"cell line": "NCI-H1623", "values": [{"measurement": "relative viability", "setting": "KN-93; 0.08 µM", "result": 0.95}, {"measurement": "relative viability", "setting": "KN-93; 0.253 µM", "result": 0.984}, {"measurement": "relative viability", "setting": "KN-93; 2.53 µM", "result": 0.956}, {"measurement": "relative viability", "setting": "KN-93; 8 µM", "result": 0.958}, {"measurement": "relative viability", "setting": "KN-93 + Dasatinib; first compound 0.08 µM", "result": 0.647}, {"measurement": "relative viability", "setting": "KN-93 + Dasatinib; first compound 0.253 µM", "result": 0.525}, {"measurement": "relative viability", "setting": "KN-93 + Dasatinib; first compound 2.53 µM", "result": 0.536}, {"measurement": "relative viability", "setting": "KN-93 + Dasatinib; first compound 8 µM", "result": 0.393}, {"measurement": "relative viability", "setting": "KN-93 + Tozasertib; first compound 0.08 µM", "result": 0.445}, {"measurement": "relative viability", "setting": "KN-93 + Tozasertib; first compound 0.253 µM", "result": 0.41}, {"measurement": "relative viability", "setting": "KN-93 + Tozasertib; first compound 2.53 µM", "result": 0.41}, {"measurement": "relative viability", "setting": "KN-93 + Tozasertib; first compound 8 µM", "result": 0.439}, {"measurement": "relative viability", "setting": "KN-93 + Foretinib; first compound 0.08 µM", "result": 0.861}, {"measurement": "relative viability", "setting": "KN-93 + Foretinib; first compound 0.253 µM", "result": 0.796}, {"measurement": "relative viability", "setting": "KN-93 + Foretinib; first compound 2.53 µM", "result": 0.994}, {"measurement": "relative viability", "setting": "KN-93 + Foretinib; first compound 8 µM", "result": 0.726}, {"measurement": "relative viability", "setting": "KN-93 + OSI-027; first compound 0.08 µM", "result": 0.418}, {"measurement": "relative viability", "setting": "KN-93 + OSI-027; first compound 0.253 µM", "result": 0.36}, {"measurement": "relative viability", "setting": "KN-93 + OSI-027; first compound 2.53 µM", "result": 0.393}, {"measurement": "relative viability", "setting": "KN-93 + OSI-027; first compound 8 µM", "result": 0.416}, {"measurement": "relative viability", "setting": "KN-93 + Phenformin; first compound 0.08 µM", "result": 0.61}, {"measurement": "relative viability", "setting": "KN-93 + Phenformin; first compound 0.253 µM", "result": 0.592}, {"measurement": "relative viability", "setting": "KN-93 + Phenformin; first compound 2.53 µM", "result": 0.672}, {"measurement": "relative viability", "setting": "KN-93 + Phenformin; first compound 8 µM", "result": 0.453}, {"measurement": "relative viability", "setting": "KN-93 + Luminespib; first compound 0.08 µM", "result": 0.44}, {"measurement": "relative viability", "setting": "KN-93 + Luminespib; first compound 0.253 µM", "result": 0.414}, {"measurement": "relative viability", "setting": "KN-93 + Luminespib; first compound 2.53 µM", "result": 0.654}, {"measurement": "relative viability", "setting": "KN-93 + Luminespib; first compound 8 µM", "result": 0.457}]}
{"cell line": "NCI-H1648", "values": [{"measurement": "relative viability", "setting": "KN-93; 0.08 µM", "result": 0.704}, {"measurement": "relative viability", "setting": "KN-93; 0.253 µM", "result": 0.792}, {"measurement": "relative viability", "setting": "KN-93; 2.53 µM", "result": 0.968}, {"measurement": "relative viability", "setting": "KN-93; 8 µM", "result": 0.526}, {"measurement": "relative viability", "setting": "KN-93 + Vorinostat; first compound 0.08 µM", "result": 0.485}, {"measurement": "relative viability", "setting": "KN-93 + Vorinostat; first compound 0.253 µM", "result": 0.423}, {"measurement": "relative viability", "setting": "KN-93 + Vorinostat; first compound 2.53 µM", "result": 0.322}, {"measurement": "relative viability", "setting": "KN-93 + Vorinostat; first compound 8 µM", "result": 0.807}, {"measurement": "relative viability", "setting": "KN-93 + AZD7762; first compound 0.08 µM", "result": 0.647}, {"measurement": "relative viability", "setting": "KN-93 + AZD7762; first compound 0.253 µM", "result": 0.727}, {"measurement": "relative viability", "setting": "KN-93 + AZD7762; first compound 2.53 µM", "result": 0.82}, {"measurement": "relative viability", "setting": "KN-93 + AZD7762; first compound 8 µM", "result": 0.663}, {"measurement": "relative viability", "setting": "KN-93 + Tozasertib; first compound 0.08 µM", "result": 0.426}, {"measurement": "relative viability", "setting": "KN-93 + Tozasertib; first compound 0.253 µM", "result": 0.378}, {"measurement": "relative viability", "setting": "KN-93 + Tozasertib; first compound 2.53 µM", "result": 0.389}, {"measurement": "relative viability", "setting": "KN-93 + Tozasertib; first compound 8 µM", "result": 0.331}, {"measurement": "relative viability", "setting": "KN-93 + Olaparib; first compound 0.08 µM", "result": 0.56}, {"measurement": "relative viability", "setting": "KN-93 + Olaparib; first compound 0.253 µM", "result": 0.724}, {"measurement": "relative viability", "setting": "KN-93 + Olaparib; first compound 2.53 µM", "result": 0.568}, {"measurement": "relative viability", "setting": "KN-93 + Olaparib; first compound 8 µM", "result": 0.711}, {"measurement": "relative viability", "setting": "KN-93 + Palbociclib; first compound 0.08 µM", "result": 0.251}, {"measurement": "relative viability", "setting": "KN-93 + Palbociclib; first compound 0.253 µM", "result": 0.259}, {"measurement": "relative viability", "setting": "KN-93 + Palbociclib; first compound 2.53 µM", "result": 0.295}, {"measurement": "relative viability", "setting": "KN-93 + Palbociclib; first compound 8 µM", "result": 0.291}, {"measurement": "relative viability", "setting": "KN-93 + Decitabine; first compound 0.08 µM", "result": 0.459}, {"measurement": "relative viability", "setting": "KN-93 + Decitabine; first compound 0.253 µM", "result": 0.45}, {"measurement": "relative viability", "setting": "KN-93 + Decitabine; first compound 2.53 µM", "result": 0.557}, {"measurement": "relative viability", "setting": "KN-93 + Decitabine; first compound 8 µM", "result": 0.34}, {"measurement": "relative viability", "setting": "KN-93 + Pemetrexed; first compound 0.08 µM", "result": 0.717}, {"measurement": "relative viability", "setting": "KN-93 + Pemetrexed; first compound 0.253 µM", "result": 0.874}, {"measurement": "relative viability", "setting": "KN-93 + Pemetrexed; first compound 2.53 µM", "result": 0.788}, {"measurement": "relative viability", "setting": "KN-93 + Pemetrexed; first compound 8 µM", "result": 0.716}, {"measurement": "relative viability", "setting": "KN-93 + OSI-027; first compound 0.08 µM", "result": 0.263}, {"measurement": "relative viability", "setting": "KN-93 + OSI-027; first compound 0.253 µM", "result": 0.254}, {"measurement": "relative viability", "setting": "KN-93 + OSI-027; first compound 2.53 µM", "result": 0.229}, {"measurement": "relative viability", "setting": "KN-93 + OSI-027; first compound 8 µM", "result": 0.202}, {"measurement": "relative viability", "setting": "KN-93 + Trametinib; first compound 0.08 µM", "result": 0.403}, {"measurement": "relative viability", "setting": "KN-93 + Trametinib; first compound 0.253 µM", "result": 0.445}, {"measurement": "relative viability", "setting": "KN-93 + Trametinib; first compound 2.53 µM", "result": 0.381}, {"measurement": "relative viability", "setting": "KN-93 + Trametinib; first compound 8 µM", "result": 0.407}]}
